Source: patent US20090215884A1, “METHOD FOR WOUND HEALING” (priority 2005, published 2009)

Test system: epidermal keratinocytes
Assay: Keratinocyte extracellular matrix attachment
Type: cell-based, human
Method: Human, adult, epidermal keratinocytes, were purchased cryopreserved from Cascade Biologics Inc., Nottinghamshire, U.K. These cells (>500,000 viable cells/vial) were tested to be >70% viable, with the capacity to proliferate for at least 16 population doublings. The epidermal keratinocytes were cultured in serum-free, EpiLife® Medium (Cascade Biologics Inc.), supplemented with antibiotics (100 U/ml penicillin G sodium, […] streptomycin sulphate and 0.25 μg/ml amphotericin B) and EpiLife® Defined Growth Supplement (EDGS, consisting of purified bovine serum albumin, purified bovine transferring, hydrocortisone, recombinant human insulin-like growth factor type-1, prostaglandin E2 and recombinant human epidermal growth factor, Cascade Biologics Inc.). Epidermal keratinocytes cultures were maintained at 37° C., in a 5% CO2/95% air atmosphere, with the culture medium being changed every 2-3 days. Epidermal keratinocytes were used between 4-6 passages, for all experiments.
Prior to use, the PEP005/DMSO stock solution was removed from 4° C. storage and warmed to room temperature. […]

**Q.** How did the “epidermal keratinocyte attachment to type I collagen” value (0, 01-10 μg/ml PEP005) turn out when `C/C=C(/C)C(=O)O[C@H]1C(C)=C[C@]23C(=O)[C@@H](C=C(CO)[C@@H](O)[C@]12O)[C@H]1[C@@H](C[C@H]3C)C1(C)C` [PEP005, ingenol-3-angelate] was run?
**A.** significant dose-dependent stimulation

**Q.** What about the “epidermal keratinocyte attachment to plasma fibronectin” value (1-μg/ml PEP005) of the same compound?
**A.** trend towards a possible stimulation
